Measurements as given in paper PMC6274279, “Novel Cholinesterase Inhibitors Based on O-Aromatic N,N-Disubstituted Carbamates and Thiocarbamates” (Molecules, 2016).
Read-outs that look alike come from different tables or passages of the source.

How the values were obtained:
BChE from equine serum = target: T1, BChE from equine serum (Equus caballus, UniProt P81908); experiment: Butyrylcholinesterase inhibition, spectrophotometric Ellman's method; format: biochemical; conditions: for Selectivity to BChE: IC50 for AChE/IC50 for BChE; for Selectivity Index for BChE: ratio of cellular toxicity (HepG2 IC50) and IC50 for BChE
T1 construct: butyrylcholinesterase was from equine serum; from tissue; host or cells: equine serum
Procedure: (§1) The IC50 values were determined using the spectrophotometric Ellman’s method, which is a simple and rapid method to determine the SH and -S-S- groups content in proteins. This method is widely used for the evaluation of cholinesterase activity and screening the efficiency of ChE inhibitors. Cholinesterase activity is measured indirectly by quantifying the concentration of the 5-mercapto-2-nitrobenzoic acid ion formed in the reaction between the thiol reagent 5,5′-dithiobis(2-nitrobenzoic acid) and thiocholine, a product of substrate hydrolysis (i.e., acetylthiocholine, ATCh) by cholinesterases. Ellman’s method was modified slightly according to Zdrazilova et al..
(§2) The inhibitory potency of fifteen carbamates and five thiocarbamates was evaluated for AChE from electric eel and BChE from equine serum.
(§3) The IC50 values were determined using the spectrophotometric Ellman’s method. All of the tested compounds were dissolved in 0.01 M dimethyl sulphoxide and then diluted in demineralised water to 0.001 M and 0.0001 M. Ellman’s method was modified slightly according to Zdrazilova et al.. Acetylcholinesterase was obtained from electric eel (Electrophorus electricus L.) and butyrylcholinesterase was from equine serum.

AChE from electric eel = target: T2, AChE from electric eel (Electrophorus electricus, UniProt O42275); experiment: Acetylcholinesterase inhibition, spectrophotometric Ellman's method; format: biochemical, electric eel (Electrophorus electricus L.); conditions: for Selectivity Index for AChE: ratio of cellular toxicity (HepG2 IC50) and IC50 for AChE
T2 construct: Acetylcholinesterase was obtained from electric eel (Electrophorus electricus L.); from tissue
Procedure: as §1, §2, §3

HepG2 cells = conditions: cited from earlier work
[1] = cytotoxicity determined previously, read-out: IC50 for HepG2
[2] = approximate value, read-out: IC50 values (cytotoxicity, HepG2)

T1 sequence (P81908 whole entry): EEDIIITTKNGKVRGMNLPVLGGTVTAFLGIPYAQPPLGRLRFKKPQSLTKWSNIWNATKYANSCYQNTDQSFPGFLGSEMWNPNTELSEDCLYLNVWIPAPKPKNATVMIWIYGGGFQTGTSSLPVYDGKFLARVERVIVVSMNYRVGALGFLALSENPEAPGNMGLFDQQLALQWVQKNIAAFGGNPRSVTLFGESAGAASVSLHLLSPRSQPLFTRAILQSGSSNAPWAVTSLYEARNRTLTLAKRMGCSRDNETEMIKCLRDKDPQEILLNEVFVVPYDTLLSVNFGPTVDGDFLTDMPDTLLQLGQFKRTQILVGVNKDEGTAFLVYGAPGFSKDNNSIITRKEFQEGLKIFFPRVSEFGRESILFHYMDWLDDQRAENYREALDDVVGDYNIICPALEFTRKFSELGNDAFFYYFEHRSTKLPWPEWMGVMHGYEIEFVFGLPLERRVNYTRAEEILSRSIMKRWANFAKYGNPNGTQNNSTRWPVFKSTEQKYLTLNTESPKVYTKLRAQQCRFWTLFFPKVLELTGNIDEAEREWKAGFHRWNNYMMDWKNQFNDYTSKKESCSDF
T2 sequence (O42275 24-633): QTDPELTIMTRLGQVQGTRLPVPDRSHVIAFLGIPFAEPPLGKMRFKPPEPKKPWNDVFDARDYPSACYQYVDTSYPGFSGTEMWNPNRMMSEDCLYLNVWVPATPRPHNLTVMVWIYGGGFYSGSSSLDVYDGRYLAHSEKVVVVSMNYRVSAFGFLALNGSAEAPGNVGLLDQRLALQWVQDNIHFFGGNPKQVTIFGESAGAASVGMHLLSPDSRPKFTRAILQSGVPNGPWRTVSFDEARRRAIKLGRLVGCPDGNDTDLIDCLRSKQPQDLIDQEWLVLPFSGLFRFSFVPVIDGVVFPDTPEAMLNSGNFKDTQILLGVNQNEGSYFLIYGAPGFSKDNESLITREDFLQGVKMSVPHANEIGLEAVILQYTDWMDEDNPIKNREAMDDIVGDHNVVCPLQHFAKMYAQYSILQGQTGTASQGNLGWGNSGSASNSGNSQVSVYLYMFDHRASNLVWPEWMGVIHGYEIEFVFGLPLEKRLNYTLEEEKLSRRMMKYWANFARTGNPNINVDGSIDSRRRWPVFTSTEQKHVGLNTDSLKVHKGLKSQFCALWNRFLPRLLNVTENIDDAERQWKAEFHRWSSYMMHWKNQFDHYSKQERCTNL

| Compound | IC50 (BChE from equine serum) [µM] | Selectivity to BChE (BChE from equine serum) | IC50 (AChE from electric eel) [µM] | Selectivity Index for BChE (BChE from equine serum) | Selectivity Index for AChE (AChE from electric eel) | IC50 (HepG2 cells; [1]) [µM] | IC50 (HepG2 cells; [2]) [µM] |
| --- | --- | --- | --- | --- | --- | --- | --- |
| CN(C)C(=O)Oc1ccc(Cl)cc1C(=O)Nc1ccc(Cl)cc1 [1a] | 88.4 ± 1.27 | 0.8 | 72.9 ± 1.06 |  |  |  |  |
| CN(C)C(=S)Oc1ccc(Cl)cc1C(=O)Nc1ccc(Cl)cc1 [1b, O-{4-Chloro-2-[(4-chlorophenyl)carbamoyl]phenyl} dimethylcarbamothioate] | 51.4 ± 1.65 | 0.8 | 39 ± 1.11 | 1.6 | 2.1 | 83.5 |  |
| CN(C(=O)Oc1ccc(Cl)cc1C(=O)Nc1ccc(Cl)cc1)c1ccccc1 [1c] | 4.2 ± 0.18 | 17.8 | 74.8 ± 2.95 | 68.8 |  | 289 |  |
| O=C(Nc1ccc(Cl)cc1)c1cc(Cl)ccc1OC(=O)N(c1ccccc1)c1ccccc1 [1d] | 106 ± 3.64 |  | 54.8 ± 1.43 |  |  |  |  |
| CN(C)C(=O)Oc1ccc(Cl)cc1C(=O)Nc1ccc(Br)cc1 [2a] | 54.21 ± 0.3 | 1.2 | 62.4 ± 1.36 |  |  |  |  |
| CN(C)C(=S)Oc1ccc(Cl)cc1C(=O)Nc1ccc(Br)cc1 [2b] | 54.64 ± 0.42 | 1.1 | 59.1 ± 2.13 |  |  |  |  |
| CN(C(=O)Oc1ccc(Cl)cc1C(=O)Nc1ccc(Br)cc1)c1ccccc1 [2c, 2-[(4-bromophenyl)carbamoyl]-4-chlorophenyl methyl(phenyl)carbamate] | 4.3 ± 0.51 | 19.0 | 81.6 ± 2.92 |  | 11.6 | 945 |  |
| O=C(Nc1ccc(Br)cc1)c1cc(Cl)ccc1OC(=O)N(c1ccccc1)c1ccccc1 [2d] | 145 ± 29 |  | 63.3 ± 0.95 |  |  |  |  |
| CN(C)C(=O)Oc1ccc(Cl)cc1C(=O)Nc1ccc(F)cc1 [3a, 4-chloro-2-[(4-fluorophenyl)carbamoyl]phenyl dimethylcarbamate] | 311 ± 4.5 |  | 76.2 ± 2.87 |  |  |  |  |
| CN(C)C(=S)Oc1ccc(Cl)cc1C(=O)Nc1ccc(F)cc1 [3b, O-{4-chloro-2-[(4-fluorophenyl)carbamoyl]phenyl} dimethylcarbamothioate] | 91.4 ± 5.45 | 1.0 | 89.7 ± 4.68 |  |  |  |  |
| CN(C(=O)Oc1ccc(Cl)cc1C(=O)Nc1ccc(F)cc1)c1ccccc1 [3c] | 7.34 ± 0.14 | 8.5 | 62.5 ± 5.03 | 69.8 | 8.2 | 512 |  |
| O=C(Nc1ccc(F)cc1)c1cc(Cl)ccc1OC(=O)N(c1ccccc1)c1ccccc1 [3d] | 15.63 ± 0.11 | 3.1 | 49 ± 3.88 |  |  |  |  |
| CN(C)C(=O)Oc1ccc(Cl)cc1C(=O)Nc1ccc(C(F)(F)F)cc1 [4a, 4-chloro-2-{[4-(trifluoro-methyl)phenyl]carbamoyl}phenyl dimethylcarbamate] | 28.1 ± 0.86 | 1.7 | 49 ± 0.54 |  |  | 6510 | ~6000 |
| CN(C)C(=S)Oc1ccc(Cl)cc1C(=O)Nc1ccc(C(F)(F)F)cc1 [4b] | 36.22 ± 0.28 | 1.2 | 42 ± 0.55 | 1.9 |  | 67.3 |  |
| CN(C(=O)Oc1ccc(Cl)cc1C(=O)Nc1ccc(C(F)(F)F)cc1)c1ccccc1 [4c] | 1.97 ± 0.02 |  | 49.9 ± 2.76 | ˃50.8 |  | > 100 |  |
| O=C(Nc1ccc(C(F)(F)F)cc1)c1cc(Cl)ccc1OC(=O)N(c1ccccc1)c1ccccc1 [4d] | 49 ± 0.17 | 1.0 | 47.4 ± 2.78 |  |  |  |  |
| CN(C)C(=O)Oc1ccccc1C(=O)Nc1ccccc1 [5a] | 83.6 ± 6.84 | 0.7 | 57.7 ± 1.6 | 71.6 |  | 5990 | ~6000 |
| CN(C)C(=S)Oc1ccccc1C(=O)Nc1ccccc1 [5b] | 26.6 ± 2.78 | 2.3 | 61.9 ± 6.56 |  |  |  |  |
| CN(C(=O)Oc1ccccc1C(=O)Nc1ccccc1)c1ccccc1 [5c] | 11.4 ± 0.48 | 4.8 | 55 ± 2.46 |  |  |  |  |
| O=C(Nc1ccccc1)c1ccccc1OC(=O)N(c1ccccc1)c1ccccc1 [5d, 2-(phenylcarbamoyl)phenyl diphenylcarbamate] | 1.6 ± 0.01 |  | 53.8 ± 4.26 | 131.9 |  | 211 |  |
